Assay results from patent US8481084B2, “Cholesterol-interacting layered phyllosilicates and methods of reducing hypercholesteremia in a mammal” (Amcol International Corporation, priority 2007, dated 2013).

Tests used:
[1] = system: New Zealand Male Rabbits fed a high cholesterol diet; assay: Plasma lipids in rabbits fed a high cholesterol diet, severe dyslipidemic model (Example 11); assay type: in vivo, New Zealand white rabbits
Experimental: Male New Zealand white rabbits ([…]; Control group [n=5], Simvastatin Group [n=4], Compound A Group [n=5], Compound B Group [n=5] and Compound C Group [n=5]) were housed in individual cages in a room with constant humidity and temperature (22° C.) under a 12 h light-dark cycle, and fed a standard diet for 7 days. After 7 days, animals were fed 10 g of a regular chow diet plus 100 g of the same diet supplemented with 0.5% (w/v) cholesterol and 14.0% (w/v) coconut oil for an additional 28 days. The final diet administered to these rabbits (following dilution of 100 g of high fat/cholesterol diet with 10 g of regular chow) consistent of 0.45% (w/v) cholesterol and 12.75% (w/v) coconut oil. […] The total plasma cholesterol, ApoB, HDL and triglyceride concentrations of the subjects prior to drug treatment is set forth in FIGS. 1-4, respectively.
For an additional 21 days (day 35 to day 56 of the study), a group of control animals (n=5) were maintained on the same diet (10 g regular chow diet plus 100 g of cholesterol/coconut diet) and four groups of animals were fed 100 g of cholesterol/coconut diet plus 10 g regular chow diet containing either simvastatin (3 mg/kg/day; n=4), Compound A (hydrogen protonated layered phyllosilicate material (prepared as described above in Example 2); 20 mg/kg/day; n=5), Compound B (layered phyllosilicate material with surface modified with lecithin prepared as described above in Example 5); 20 mg/kg/day; n=5) and Compound C (layered phyllosilicate material with surface acid treatment prepared as described above in Example 6) 20 mg/kg/day; n=5). Whole blood was collected (3 ml) prior to and 7, 14, and 21 days after initiation of treatment for plasma lipid determinations.
Plasma total cholesterol and triglyceride concentrations were directly quantified using enzymatic kits (Sigma Aldrich). HDL-cholesterol concentrations were determined using the dextran sulfate-Mg^2+ precipitation method as developed by Wamick et al. (9). The Friedewald equation for determining LDL cholesterol could not be used in this rabbit fed model (10). However, measurement of apoB cholesterol (which takes into account LDL-cholesterol) concentrations were determined by subtracting HDL-cholesterol concentrations from total cholesterol concentrations.
Statistical analysis: Results are expressed as mean±standard error of the mean (SEM). Statistical analyses were conducted using an analysis of variance (PCANOVA; Human Dynamic Systems) and assuming unequal variance (Newman Keuls post-hoc test; assuming unequal variance). Variables compared among treatment groups include, weight gain, total plasma cholesterol, total plasma triglyceride, HDL-cholesterol and ApoB-cholesterol. A p-value of less than 0.05 indicates a significant difference between treated and untreated groups.

[2] = system: intestinal cholesterol absorption; assay: Absorption of orally given [3H]cholesterol in rats, plasma AUC (Example 12); assay type: in vivo, male Sprague Dawley rats
Experimental: The following Example was performed to determine the bioavailability and pharmacokinetics of dietary cholesterol following oral administration of different layered phyllosilicate material compounds to male Sprague Dawley rats, using the methodology reported in Wassan et al. J. Pharmaceut. Sci., 90:23-28, 2001.
Preparation of cholesterol formulation: Commercially available 20% Intralipid® was diluted by external phase of emulsion to reach a triglyceride concentration of 10% v/v. Cold cholesterole as dissolved in 100% ethanol (1 mg/75 μl) and the solution was slowly added to the 10% Intralipid® with magnetic stirring. [^3H]cholesterol toluene solution (25 μl/ml) was then slowly added and then vortexed for 30 seconds. The formulation was then mixed by magnetic stirring for an additional 30 minutes until ready for administration. The final formulation contained 90% of the 10% Intralipid®, 7.5% ethanol and 2.5% toluene. The final concentrations of cold and radiolabeled cholesterol were 1 mg/ml and 25 μCi/ml, respectively.
Preparation of Ezetimibe Formulation: Commercially Available Ezetimibe Tablets were crushed and suspended in double distilled water to reach final ezetimibe concentration of 5 mg/ml. The suspension was briefly vortexed and then stirred using a magnetic stirrer for about 1 hour until ready for administration.
Preparation of the Stigmastanol Formulation: Stigmastanol was Pre-Wetted by Tween 80 (1% v/v final concentration) and suspended in 2% sodium carboxymethyl cellulose solution in double distilled water. The suspension was briefly vortexed for about 3 minutes, sonicated (Bransonic®3510) for 2 hours at ambient temperature and then stirred with a magnetic stirrer for 30 minutes until ready for administration. The final concentration of stigmastanol in the suspension was 25 mg/ml.
Experimental design: All rats used in this study were cared for in accordance with the principles promulgated by the Canadian Council on Animal Care and the University of British Columbia. Adult male Sprague Dawley rats (weighing approximately 350 g) were obtained from UBC animal care unit (Vancouver, B. C., Canada). The rats were maintained under a 12 hour light ([…])/dark cycle and supplied with a standard laboratory diet (PMI Feeds, Richmond, Va., USA) and water ad libitum. The right external jugular vein was cannulated with a two-part catheter consisting of PE 50 connected to a short length of 0.02 inch silastic tubing inserted 3.2 cm past the clavicle (Hauss et al., Contemp Top Lab Anim Sci., 37(3):56-58 1998). The jugular cannula was tunneled beneath the skin and exteriorized through a small stab wound in the back of the neck. The animals were outfitted with jacket-and-tether assemblies and placed in metabolism cages for the duration of the study.
Following completion of the surgical procedures, the animals were fasted overnight and permitted to recover for 16-20 hours. Free access to a drinking solution consisting of 5% glucose in lactated Ringer's solution was permitted postoperatively and throughout the study. The following treatment protocol was used. Following an overnight fast (12-16 hours), rats were divided into one of the following fourteen treatment groups and received a single-dose oral gavage (1 g Intralipid emulsion) at 0700 h of either:
All of test Compounds A, G, H, I, J, K, L or M were given as a separate slurry to the animal by oral gavage.
Following oral administration, serial blood samples were collected into EDTA-coated tubes predose and at 10 minutes predosing and at 0.5, 1, 2, 4, 6, 10, 24 28, 32 and 48 hours postdosing. The withdrawn blood was replaced by equal volume of normal saline to prevent hypovolemia. Rats remained fasted throughout the duration of blood sampling (12 h predosing+24 h postdosing=[…] total fasting). Plasma was obtained by centrifugation and analyzed for [^3H] cholesterol by radioactivity. […]

CCC(C)(C)C(=O)O[C@H]1C[C@@H](C)C=C2C=C[C@H](C)[C@H](CC[C@@H]3C[C@@H](O)CC(=O)O3)[C@H]21 [Simvastatin, simvastatin]
ApoB-Cholesterol, % C (percentage change from Day 35 to Day 56) ([1]; SVT 3 mg/kg/day, A, B, C 20 mg/kg/day, control +63%): −53%
Total Cholesterol, % C (percentage change from Day 35 to Day 56) ([1]; SVT 3 mg/kg/day, A, B, C 20 mg/kg/day, control +68%): −52%
Total Cholesterol, Day 35 ([1]; beginning of drug treatment (day 35), mean ± SEM, SVT 3 mg/kg/day, A, B, C 20 mg/kg/day): 1167 ± 276 mg/dL
ApoB-Cholesterol, Day 35 ([1]; beginning of drug treatment (day 35), total minus HDL cholesterol, mean ± SEM): 1092 ± 265 mg/dL
Total Cholesterol, Day 56 ([1]; end of drug treatment (day 56), mean ± SEM, SVT 3 mg/kg/day, A, B, C 20 mg/kg/day): 556 ± 122 mg/dL
ApoB-Cholesterol, Day 56 ([1]; end of drug treatment (day 56), total minus HDL cholesterol, mean ± SEM): 517 ± 121 mg/dL

O=C1[C@H](CC[C@H](O)c2ccc(F)cc2)[C@@H](c2ccc(O)cc2)N1c1ccc(F)cc1 [ezetimibe]
% of control group (AUC0-48 h) ([2]; 10 mg/kg): 8.6%
AUC0-48h (mean±SEM) ([2]; 10 mg/kg ezetimibe): 6940 ± 462 ng·h/mL
AUC0-48 h of cholesterol (mean ± SEM) ([2]; 10 mg/kg oral with [3H]cholesterol, control 80861 ± 5911): 6937 ± 462 ng·h/mL
inhibition of intestinal cholesterol absorption, in words ([2]; ezetimibe 10 mg/kg versus Compound A or stigmastanol 50 mg/kg): higher inhibition

CC[C@H](CC[C@@H](C)[C@H]1CC[C@H]2[C@@H]3CC[C@H]4C[C@@H](O)CC[C@]4(C)[C@H]3CC[C@]12C)C(C)C [stigmastanol]
% of control group (AUC0-48 h) ([2]; 50 mg/kg): 68.9%
AUC0-48 h of cholesterol (mean ± SEM) ([2]; 50 mg/kg oral with [3H]cholesterol): 55742 ± 3764 ng·h/mL
